Twelve compounds from patent US20030114441A1, “Heterocyclic anti-epileptogenic agents and methods of use thereof” (Queen's University at Kingston, priority 2001, published 2003) can be followed below.

One test has as its system MES-induced seizure. The test can be described thus: Maximal electroshock seizure test (MES). The format is in vivo, male Carworth Farms #1 mice or male Sprague-Dawley rats. Also noted: key to MES 0.5 hr / MES 4 hr: — = no activity. To be noted: for MES 0.5 hr / MES 4 hr: i.p. at 300, 100 and 30 mg/kg; for MES 0.5 hr: stimulus 0.5 hr after administration; for MES 4 hr: stimulus 4 hr after administration. Here is the method:
The MES and PTZ assays were performed by the Anticonvulsant Drug Development (ADD) Program in the Epilepsy Branch of the NIH (see, e.g., Stables and Kupferberg (1997) The NIH anticonvulsant Drug Development (ADD) Program: Preclinical Anticonvulsant Screening Project, Libby & Sons). All compounds were tested with either male Carworth Farms #1 mice or male Sprague-Dawley rats. Each test compound was administered via an i.p. injection at 300, 100, and 30 mg/kg. For the maximal electroshock seizure test (MES), corneal electrodes primed with a drop of electrolyte solution (0.9% NaCl) are applied to the eyes of the animal and an electrical stimulus (50 mA for mice, 150 mA for rats; 60 Hz) is delivered for 0.2 seconds at 0.5 and 4.0 hours after test compound administration. The animals are restrained by hand and are released at the moment of stimulation in order to permit observation of the seizure.

For another test, the system named is PTZ-induced seizure. The test can be described thus: Subcutaneous pentylenetetrazole (PTZ)-induced seizure model. The format is in vivo, male Carworth Farms #1 mice or male Sprague-Dawley rats. Set-up: key to PTZ 0.5 hr / PTZ 4 hr: — = no activity. To be noted: for PTZ 0.5 hr / PTZ 4 hr: i.p. at 300, 100 and 30 mg/kg; for PTZ 0.5 hr: PTZ 0.5 hr after administration; for PTZ 4 hr: PTZ 4 hr after administration. Here is the method: The MES and PTZ assays were performed by the Anticonvulsant Drug Development (ADD) Program in the Epilepsy Branch of the NIH (see, e.g., Stables and Kupferberg (1997) The NIH anticonvulsant Drug Development (ADD) Program: Preclinical Anticonvulsant Screening Project, Libby & Sons). All compounds were tested with either male Carworth Farms #1 mice or male Sprague-Dawley rats. Each test compound was administered via an i.p. injection at 300, 100, and 30 mg/kg. In the subcutaneous pentylenetetrazole (PTZ)-induced seizure model, seizures are induced 0.5 and 4 hrs after test compound administration by i.p. injection of PTZ (85 mg/kg in mice and 70 mg/kg in rats). Protection is defined as the inhibition of clonic spasms over a 30 min observation period.

For test [1], the system named is pilocarpine-induced seizures. The test can be described thus: Pilocarpine assay (seizure model). The format is in vivo, adult male Sprague-Dawley rats. To be noted: 100 mg/kg i.p., 20 min before pilocarpine hydrochloride 350 mg/kg i.p.; 30 minute observation. How it is done: A seizure model is performed using adult male Sprague-Dawley rats in accordance with the guidelines of the Canada Council on Animal Care and under the supervision of the Queen's University Animal Ethics Committee. This test procedure was adopted from previous work by Turski et al. (1984) Brain Res. 321:237. The test compounds are administered at 100 mg/kg by intraperitoneal (i.p.) injection. Seizures are induced 20 minutes afterwards by i.p. administration of pilocarpine hydrochloride (350 mg/kg). Protection is defined as the absence of clonic spasms over a 30 minute observation period after pilocarpine administration.

The subject of test [2] is spontaneous recurrent seizures. Briefly: Spontaneous recurrent seizures (SRS) model of epilepsy. The format is in vivo, adult male Sprague-Dawley rat. To be noted: 20 mg/kg/day i.v. for 10 day. Here is the method:
The “spontaneous recurrent seizures” (SRS) model of epilepsy is used to evaluate candidate compounds in a model for Phase 1 epileptogenesis (see, e.g., Mello, E. et al., Epilepsia (1993) 34:985; Cavalheiro, J. et al., Epilepsia (1991) 32:778). In the SRS model, an adult male Sprague-Dawley rat (c. 260 g) is given pilocarpine by injection (380 mg/kg i.p.). Within 25 minutes, the animal enters status epilepticus, which lasts for 3 hours, and then diazepam is administered to stop seizures. The rat is allowed to spontaneously recover and is given food and water ad lib. and maintained on a 12 hour/12 hour light/dusk cycle. Beginning on about day 13-15, the rats develop spontaneous recurrent seizures, which occur at the rate of about 4-5 per week. The rats are videotaped 8 hours per day 5 days per week, and the videotapes are reviewed for behavioral seizures (including head nodding, forelimb clonus, and rearing), which are counted. The animals are watched for two months, permitting evaluation of a sufficient number of seizures. An experimental compound for evaluation can be administered at either of two times: Time 1, on Day 1, after the cessation of status epilepticus but before the onset of SRS; or Time 2, on Day 30, when the rats have been experiencing SRS for about two weeks. […]

Setting [3] is: @ 100 mg, i.p., 4 hr after administration.

In the case of `COC(=O)CC(c1ccc2ccccc2n1)N(Cc1ccccc1)Cc1ccccc1` (stereo not shown), in the test on MES-induced seizure (setting [3]), the “MES 4 hr, fraction of animals” value is listed as 1/3 @ 100 mg. Besides, the “MES 0.5 hr” value in the test with MES-induced seizure is recorded as “—”. In addition, in the test with PTZ-induced seizure, the “PTZ 0.5 hr” value is “—” and the “PTZ 4 hr” value is “—”. For the same compound, the “Pilocarpine, activity in words” value in test [1] is “Inactive”.

`O=C(CC(c1ccc2ccccc2n1)N(Cc1ccccc1)Cc1ccccc1)N(Cc1ccccc1)Cc1ccccc1` (stereo not shown): in the test with MES-induced seizure, the “MES 0.5 hr” value is “—” and the “MES 4 hr” value is given as “—”. Also, in the test with PTZ-induced seizure, the “PTZ 0.5 hr” value is listed as “—” and the “PTZ 4 hr” value is reported as “—”. Moreover, the “Pilocarpine, activity in words” value in test [1] is given as “Min. Active”.

Turning to `COC(=O)CC(NC(C)c1ccccc1)c1cc2ccccc2o1` (stereo not shown), in the test on MES-induced seizure, the “MES 0.5 hr” value is “—” and the “MES 4 hr” value is listed as “—”. The “PTZ 4 hr, fraction of animals” value in the test with PTZ-induced seizure (setting [3]) was 1/5 @ 100 mg. In the test with PTZ-induced seizure (@ 300 mg, i.p., 0.5 hr after administration), the “PTZ 0.5 hr, fraction of animals” value was 2/5 @ 300 mg. Also, in test [1], the “Pilocarpine, activity in words” value is given as “Active”.

For `COC(=O)CC(NC(C)c1ccccc1)c1cnc2ccccc2c1` (stereo not shown), in the test with MES-induced seizure, the “MES 0.5 hr” value was “—” and the “MES 4 hr” value is “—”. In the test with PTZ-induced seizure, the “PTZ 0.5 hr” value was “—” and the “PTZ 4 hr” value is given as “—”. Moreover, in test [1], the “Pilocarpine, activity in words” value was “Min. Active”.

In the case of `COC(=O)CC(NC(C)c1ccccc1)c1ccc2ccccc2n1` (stereo not shown), in the test on MES-induced seizure, the “MES 0.5 hr” value is “—” and the “MES 4 hr” value is reported as “—”. Also, in the test on PTZ-induced seizure, the “PTZ 0.5 hr” value is reported as “—” and the “PTZ 4 hr” value is “—”. For the same compound, the “Pilocarpine, activity in words” value in test [1] is reported as “Active”.

Regarding `COC(=O)CC(NC(C)c1ccccc1)c1ccc2c(c1)cc(C)n2S(=O)(=O)c1ccccc1` (stereo not shown), in test [1], the “Pilocarpine, activity in words” value is listed as “Active”.

As for `NC(CC(=O)O)c1ccc2c(c1)OCCO2` (stereo not shown), in test [1], the “Pilocarpine, activity in words” value is reported as “Min. Active”.

`CC(NC(CC(=O)O)c1ccc2ccccc2n1)c1ccccc1` (stereo not shown): the “Pilocarpine, activity in words” value in test [1] is on record as “Active”.

With `COC(=O)CC(Nc1ccccc1OC)c1ccc2ccccc2n1` (stereo not shown), in test [1], the “Pilocarpine, activity in words” value was “Active”.

As to `COC(=O)CC(Nc1ccccc1OC)c1cc2ccccc2nc1Cl` (stereo not shown), the “Pilocarpine, activity in words” value in test [1] was “Min. Active”.

Regarding `NC(CC(=O)O)c1cccs1` (stereo not shown), in the test with MES-induced seizure, the “MES 0.5 hr” value was “—” and the “MES 4 hr” value is “—”. In the test with PTZ-induced seizure, the “PTZ 0.5 hr” value was “—” and the “PTZ 4 hr” value was “—”. In addition, the “Pilocarpine, activity in words” value in test [1] was “Active”.

On to `O=C1NC(=O)C(c2ccccc2)(c2ccccc2)N1` [phenytoin], for which the “Preventing the onset of seizures (Time 1)” value in test [2] (Time 1 (Day 1, after status epilepticus, before onset of SRS)) is “ineffective”. Moreover, the “Effective at decreasing seizure frequency by 50% or more (Time 2)” value in test [2] (Time 2 (Day 30, established SRS)) was determined as 75%.
